Data taken from ChEMBL document CHEMBL1125371, “Inhibition of human leukocyte elastase (HLE) by N-substituted peptidyl trifluoromethyl ketones” (J Med Chem, 1992).
Square brackets hold non-standard residues; d marks the D form. Peptide text beside a SMILES is read from it. * marks the point of attachment. ξ: configuration not given here. Cbz = O=C(OCc1ccccc1)*; Boc = CC(C)(C)OC(=O)*; ξV = CC(C)C(N)C(=O)O; CF3 = FC(F)(F)*; Sar = CNCC(=O)O

Legend:
Neutrophil elastase = biological target: T1, Neutrophil elastase (Homo sapiens, UniProt P08246); assay: In vitro inhibitory activity against human leukocyte elastase
T1 sequence (P08246 whole entry): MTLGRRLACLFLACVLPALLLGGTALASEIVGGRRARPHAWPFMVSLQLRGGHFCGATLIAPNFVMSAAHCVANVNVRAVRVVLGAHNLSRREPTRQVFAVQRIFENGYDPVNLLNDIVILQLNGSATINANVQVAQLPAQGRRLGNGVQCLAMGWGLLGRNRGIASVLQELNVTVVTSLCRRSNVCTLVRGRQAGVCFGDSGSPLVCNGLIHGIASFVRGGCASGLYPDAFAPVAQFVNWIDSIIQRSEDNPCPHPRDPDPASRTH

Cricetinae gen. sp. [1] = assay: Compound was evaluated for inhibition of Elastase-induced Pulmonary hemorrhage (EPH) in hamsters at the dose of 3 micro/mL); format: functional
Cricetinae gen. sp. [2] = assay: Compound was evaluated for inhibition of Elastase-induced Pulmonary hemorrhage (EPH) in hamsters at the dose of 30 micro/mL); format: functional
Cricetinae gen. sp. [3] = assay: Compound was evaluated for inhibition of Elastase-induced Pulmonary hemorrhage (EPH) in hamsters at the dose of 10 micro/mL); format: functional
Cricetinae gen. sp. [4] = assay: Compound was evaluated for inhibition of Elastase-induced Pulmonary hemorrhage (EPH) in hamsters at the dose of 1 micro/mL); format: functional
Cricetinae gen. sp. [5] = assay: Compound was evaluated for inhibition of Elastase-induced Pulmonary hemorrhage (EPH) in hamsters at the dose of 20 micro/mL); format: functional; design: unit not given here
Cricetinae gen. sp. [6] = assay: Compound was evaluated for inhibition of Elastase-induced Pulmonary hemorrhage (EPH) in hamsters at the dose of 100 micro/mL); format: functional

Compound	IC50 (Neutrophil elastase) [nM]	also measured
CC(C)C(NCCN(C(=O)[C@@H](NC(=O)OC(C)(C)C)C(C)C)C1Cc2ccccc2C1)C(=O)C(F)(F)F (stereo partly drawn)	> 5000	
CC(C)C(NC(=O)CN(C(=O)[C@@H](NC(=O)c1ccc(C(=O)NS(=O)(=O)c2ccc(Cl)cc2)cc1)C(C)C)C1Cc2ccccc2C1)C(=O)C(F)(F)F (stereo partly drawn)		Max hemorrhage (Cricetinae gen. sp. [1]): 58.1; Max hemorrhage (Cricetinae gen. sp. [2]): 99.3; Inhibition of elastase-induced pulmonary hemorrhage (Cricetinae gen. sp. [3]): 90.5
CC(C)[C@H](NC(=O)OCc1ccccc1)C(=O)N(CC(=O)NCC(=O)C(F)(F)F)C1Cc2ccccc2C1	> 5000	
CC(C)C(NC(=O)c1ccc(C(=O)NS(=O)(=O)c2ccc(Br)cc2)cc1)C(=O)N1CCC[C@H]1C(=O)N[C@H](C(=O)C(F)(F)F)C(C)C (stereo partly drawn)		Max hemorrhage (Cricetinae gen. sp. [4]): 33.3; Max hemorrhage (Cricetinae gen. sp. [1]): 79.4; Inhibition of elastase-induced pulmonary hemorrhage (Cricetinae gen. sp. [3]): 98.5
CC(C)C(NC(=O)CN(C(=O)[C@@H](NC(=O)OCc1ccccc1)C(C)C)C1Cc2ccccc2C1)C(=O)C(F)(F)F (stereo partly drawn)		Max hemorrhage (Cricetinae gen. sp. [5]): 24.2
CC(C)[C@H](NC(=O)c1ccc(C(=O)NS(=O)(=O)c2ccc(Cl)cc2)cc1)C(=O)N(CC(=O)NC(Cc1ccccc1)C(=O)C(F)(F)F)C1Cc2ccccc2C1 (stereo partly drawn)	> 5000	Max hemorrhage (Cricetinae gen. sp. [5]): 43.8
CC(=O)OCC1=C(C(=O)OC(C)(C)C)N2C(=O)[C@@H](C(C)=O)C2S(=O)(=O)C1 (stereo partly drawn)		Max hemorrhage (Cricetinae gen. sp. [6]): 0
CC(C)C(NCCN(C(=O)[C@@H](NC(=O)c1ccc(C(=O)NS(=O)(=O)c2ccc(Cl)cc2)cc1)C(C)C)C1Cc2ccccc2C1)C(=O)C(F)(F)F (stereo partly drawn)	5000	Inhibition of elastase-induced pulmonary hemorrhage (Cricetinae gen. sp. [3]): 2.7
CC(C)[C@H](NC(=O)CN(C(=O)[C@@H](NC(=O)OCc1ccccc1)C(C)C)C1Cc2ccccc2C1)C(=O)c1ccc(C(F)(F)F)cc1	> 5000	
CC(C)C(NC(=O)OCc1ccccc1)C(=O)C(F)(F)F (stereo not drawn)	> 5000	
CC(C)[C@H](NC(=O)c1ccc(C(=O)NS(=O)(=O)c2ccc(Cl)cc2)cc1)C(=O)N(CC(=O)NC(C)(C)C(=O)C(F)(F)F)C1Cc2ccccc2C1	> 5000	
CC(C)[C@H](NC(=O)CN(C(=O)[C@@H](NC(=O)c1ccc(C(=O)NS(=O)(=O)c2ccc(Cl)cc2)cc1)C(C)C)C1Cc2ccccc2C1)C(=O)c1ccc(C(F)(F)F)cc1	5100	Inhibition of elastase-induced pulmonary hemorrhage (Cricetinae gen. sp. [3]): 7.7
CCOC(=O)N1CCC(N(CC(=O)NC(C(=O)C(F)(F)F)C(C)C)C(=O)[C@@H](NC(=O)OCc2ccccc2)C(C)C)CC1 (stereo partly drawn)	507	
CC(C)C(NC(=O)CN(C(=O)OCc1ccccc1)C1Cc2ccccc2C1)C(=O)C(F)(F)F (stereo not drawn)	> 5000	
CC(C)C(NC(=O)CN(C(=O)[C@@H](NC(=O)c1ccc(C(=O)NS(=O)(=O)c2ccc(Cl)cc2)cc1)C(C)C)C1CCCC1)C(=O)C(F)(F)F (stereo partly drawn)	92	Max hemorrhage (Cricetinae gen. sp. [5]): 99.2
CC(C)C(NC(=O)CN(C(=O)[C@@H](NC(=O)c1ccc(C(=O)NS(=O)(=O)c2ccc(Cl)cc2)cc1)C(C)C)C1CC2CCC1C2)C(=O)C(F)(F)F (stereo partly drawn)		Max hemorrhage (Cricetinae gen. sp. [5]): 93.8
CC(C)C(NC(=O)C1Cc2ccccc2CN1C(=O)[C@@H](NC(=O)c1ccc(C(=O)NS(=O)(=O)c2ccc(Cl)cc2)cc1)C(C)C)C(=O)C(F)(F)F (stereo partly drawn)		Max hemorrhage (Cricetinae gen. sp. [5]): 88.4
CC(NC(=O)CN(C(=O)[C@@H](NC(=O)c1ccc(C(=O)NS(=O)(=O)c2ccc(Cl)cc2)cc1)C(C)C)C1Cc2ccccc2C1)C(=O)C(F)(F)F (stereo partly drawn)	817	

The remaining compounds from weak to strong by IC50 (Neutrophil elastase), led by results:

IC50 (Neutrophil elastase) [nM]	Compound	also measured
452	CCOC(=O)CCC(=O)Nc1nc(/C(=N\OC)C(=O)N[C@H](C(=O)N(CC(=O)NC(C(=O)C(F)(F)F)C(C)C)C2Cc3ccccc3C2)C(C)C)cs1 (stereo partly drawn)	
233	CC(C)C(NC(=O)C1Cc2ccccc2CN1C(=O)[C@@H](NC(=O)OCc1ccccc1)C(C)C)C(=O)C(F)(F)F (stereo in doubt; 20y)	
217	CC(C)C(NC(=O)CN(Cc1ccccc1)C(=O)[C@@H](NC(=O)c1ccc(C(=O)NS(=O)(=O)c2ccc(Cl)cc2)cc1)C(C)C)C(=O)C(F)(F)F (stereo partly drawn)	
175	CC(C)C(NC(=O)CN(C(=O)[C@@H](NC(=O)c1ccc(C(=O)NS(=O)(=O)c2ccc(Cl)cc2)cc1)C(C)C)C1CCCCCC1)C(=O)C(F)(F)F (stereo partly drawn)	Max hemorrhage (Cricetinae gen. sp. [5]): 84.3
172	CC(C)C(NC(=O)[C@H]1CCCN1C(=O)[C@@H](NC(=O)OC(C)(C)C)C(C)C)C(=O)C(F)(F)F (stereo partly drawn)	
153	CC(C)C(NC(=O)CN(C)C(=O)[C@@H](NC(=O)OCc1ccccc1)C(C)C)C(=O)C(F)(F)F (stereo partly drawn) (Cbz-Val-[Sar]-[ξV]-CF3)	
153	CC(C)C(NC(=O)CNC(=O)[C@@H](NC(=O)OC(C)(C)C)C(C)C)C(=O)C(F)(F)F (stereo partly drawn) (Boc-Val-Gly-[ξV]-CF3)	
149	CC(C)C(NC(=O)CN(C(=O)[C@@H](NC(=O)c1ccc(C(=O)NS(=O)(=O)c2ccc(Br)cc2)cc1)C(C)C)C1Cc2ccccc2C1)C(=O)C(F)(F)F (stereo partly drawn)	
138	CC(C)C(NC(=O)CN(Cc1ccco1)C(=O)[C@@H](NC(=O)c1ccc(C(=O)NS(=O)(=O)c2ccc(Cl)cc2)cc1)C(C)C)C(=O)C(F)(F)F (stereo partly drawn)	Inhibition of elastase-induced pulmonary hemorrhage (Cricetinae gen. sp. [3]): 96.2
84	COc1ccc(CCN(CC(=O)NC(C(=O)C(F)(F)F)C(C)C)C(=O)[C@@H](NC(=O)c2ccc(C(=O)NS(=O)(=O)c3ccc(Cl)cc3)cc2)C(C)C)cc1OC (stereo partly drawn)	
73	CC(C)C(NC(=O)CNC(=O)[C@@H](NC(=O)c1ccc(C(=O)NS(=O)(=O)c2ccc(Cl)cc2)cc1)C(C)C)C(=O)C(F)(F)F (stereo partly drawn)	Max hemorrhage (Cricetinae gen. sp. [5]): 85.1
73	CC(C)C(NC(=O)C1Cc2ccccc2CN1C(=O)[C@@H](NC(=O)OCc1ccccc1)C(C)C)C(=O)C(F)(F)F (stereo in doubt; 20z)	
67	CC(C)C(NC(=O)CN(C(=O)[C@@H](NC(=O)c1ccc(C(=O)NS(=O)(=O)c2ccc(Cl)cc2)cc1)C(C)C)C1CCCCCCC1)C(=O)C(F)(F)F (stereo partly drawn)	Inhibition of elastase-induced pulmonary hemorrhage (Cricetinae gen. sp. [3]): 96.7
65	CC(C)C(NC(=O)C1CCCN1C(=O)[C@@H](NC(=O)OC(C)(C)C)C(C)C)C(=O)C(F)(F)F (stereo partly drawn)	
57	CCOC(=O)N1CCC(N(CC(=O)NC(C(=O)C(F)(F)F)C(C)C)C(=O)[C@@H](NC(=O)c2ccc(C(=O)NS(=O)(=O)c3ccc(Cl)cc3)cc2)C(C)C)CC1 (stereo partly drawn)	Max hemorrhage (Cricetinae gen. sp. [5]): 98.4
52	CC(C)C(NC(=O)CN(C)C(=O)[C@@H](NC(=O)c1ccc(C(=O)NS(=O)(=O)c2ccc(Cl)cc2)cc1)C(C)C)C(=O)C(F)(F)F (stereo partly drawn)	
30	CC(C)C(NC(=O)CN(CC1CCCO1)C(=O)[C@@H](NC(=O)c1ccc(C(=O)NS(=O)(=O)c2ccc(Cl)cc2)cc1)C(C)C)C(=O)C(F)(F)F (stereo partly drawn)	
